In PubChem BioAssay AID1322 (NMMLSC, 2008):
The source made the active and inactive calls. No rule for the calls is given here.

Target: Bcl-2-like protein 1 (Homo sapiens) (UniProt Q07817)
Assay: Bcl-XL binding to Bim peptide disruption – biochemical, multiplexed, bead flow cytometry, human Bcl-XL, dose response (AID 1322); as to inhibition: test concentration not given here
Conditions: Bead-based flow cytometry, MCF; for inhibition: stronger effect = higher value

Sequence of Bcl-2-like protein 1 (Homo sapiens) (Q07817 whole entry, looked up): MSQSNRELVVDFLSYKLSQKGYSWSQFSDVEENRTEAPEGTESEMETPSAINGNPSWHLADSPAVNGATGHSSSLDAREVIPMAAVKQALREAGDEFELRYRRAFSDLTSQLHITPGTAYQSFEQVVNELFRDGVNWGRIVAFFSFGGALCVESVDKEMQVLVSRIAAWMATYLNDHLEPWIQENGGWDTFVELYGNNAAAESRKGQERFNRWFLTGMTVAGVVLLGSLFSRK

inhibition	outcome	SMILES
inactive	–	Cc1cc(C)c(C)c(S(=O)(=O)N2CCN(CC(=O)NC(=O)NCc3ccccc3)CC2)c1C
inactive	–	Cc1cc(NC(=O)CCCC(=O)NCc2ccccc2)no1
inactive	–	O=[N+]([O-])c1ccc(N2CCN(c3ccc(O)cc3)CC2)c(Cl)c1
inactive	–	O=C(OCC(=O)c1ccc[nH]1)c1ccccc1
–	inactive	Cc1cc(N2CCN(C)CC2)nc2ccc(NC(=S)N3CCC4(CC3)OCCO4)cc12
inactive	–	OC(COc1ccc2cc(Br)ccc2c1)CN1CCOCC1 (stereo unspecified)
inactive	–	COc1ccc(-c2noc(COc3ccc4c(c3)OCO4)n2)cc1OC
inactive	–	COC(=O)c1ccc(C)c(NC(=O)CCNC(=O)c2ccc([N+](=O)[O-])cc2)c1
inactive	–	CCC(=O)NC(c1ccc(C)cc1)c1cc([N+](=O)[O-])c2cccnc2c1O (stereo unspecified)
–	inactive	CN(CCc1ccccn1)C(=O)CCC1CCCN(C(=O)NC2CCCCC2)C1 (stereo unspecified)
–	inactive	CCOC(=O)N1CCC(c2cc(=O)n(-c3ccccc3)[nH]2)CC1
–	inactive	Fc1cccc(Nc2nc(-c3ccncc3)nc3ccccc23)c1
inactive	–	Cc1ccc(NC(=O)CSc2nc3ccccc3c(=O)n2CCCN2CCCCC2)cc1Cl
inactive	–	COc1ccc(C2=Nc3cccc4cccc(c34)N2)cc1
inactive	–	Cc1ccc(C)n1-c1ccc(N2CCOCC2)cc1
inactive	–	O=C(Nc1nnc(SCc2ccccn2)s1)C1CC(=O)N(c2ccccc2)C1 (stereo unspecified)
inactive	–	COc1ccc(C(=S)N2CCCCCC2)cc1
inactive	–	CCc1cccc(CC)c1-n1c(-c2cccnc2)n[nH]c1=S
inactive	–	CN(C)c1ccc(Nc2nc(-c3cccnc3)cs2)cc1
inactive	–	CCc1ccc(/C=C/C(=O)c2cc(Br)ccc(=O)c2O)cc1
inactive	–	Cc1ccc(C)n1-c1cccc(C(=O)O)c1

inhibition	outcome	SMILES
–	inactive	CCOc1cc(NC(=S)NC)c(OCC)cc1NC(=O)c1ccc(OC)cc1
inactive	–	Cc1onc(-c2ccccc2Cl)c1C(=O)Nc1nn[nH]n1
inactive	–	CS(=O)(=O)NN1C(=O)c2ccccc2NC1c1cccc2cccnc12 (stereo unspecified)
inactive	–	O=C(C[n+]1ccc(-c2nnc3n2CCC3)cc1)c1ccc(Cl)c(Cl)c1
inactive	–	CCOC(=O)CCCNC(=O)c1cncc(O)c1
inactive	–	CCN(CC)c1ccc(NC(=O)c2cccc(C)c2)cc1S(=O)(=O)Nc1ccccc1OC
inactive	–	CCCc1nnc2n1N=C(c1ccc(-c3cc(Cl)ccc3Cl)o1)CS2
inactive	–	CN=c1scc(-c2cccs2)n1/N=C/c1ccc(O)c(O)c1O
inactive	–	Cc1cc(C)c(S(=O)(=O)/N=C2/C=C(SCC(=O)O)C(=O)c3ccccc32)cc1C
inactive	–	CNc1ccc(Br)cc(C(=O)/C=C/c2ccc(OC)cc2)c1=O
–	inactive	CCC(=O)OCCNc1cc(Sc2nccn2C)c2nonc2c1[N+](=O)[O-]
–	inactive	CCOc1ncccc1C(=O)OC(C)C(=O)Nc1ccc(CC)cc1 (stereo unspecified)
inactive	–	O=C1C(Cl)=C(N2CCN(c3ccccc3[N+](=O)[O-])CC2)C(=O)c2ccccc21
inactive	–	CCOC(=O)c1cc2c(=O)n3cccc(C)c3nc2n(Cc2ccco2)c1=NC(=O)c1ccccc1
inactive	–	CCC(=O)OCCNc1cc(Sc2nc3ccccc3[nH]2)c2nonc2c1[N+](=O)[O-]
inactive	–	O=C(Nc1cccc(C(F)(F)F)c1)c1ccc2nc(-c3ccco3)c(-c3ccco3)nc2c1
–	inactive	COc1cc(/C=N/Nc2nc3c(c(=O)n(C)c(=O)n3C)n2Cc2ccccc2)ccc1OC(=O)c1ccco1
inactive	–	OCCC1CN(Cc2nc3c(s2)CCCC3)CCN1Cc1ccsc1 (stereo unspecified)
inactive	–	COC(=O)CCC(=O)Nc1sc(C)c(C)c1C(N)=O
inactive	–	O=C1NCCN1C(=O)N(c1ccccc1)c1ccccc1
